Data as given in PubChem BioAssay (NCI).
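Cultured in 96-well plates, cells were exposed to test compound for 48 hours across five concentrations. Abbreviation: GI50, concentration required for 50% inhibition of growth. The concentration for full growth arrest is given as TGI.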

Experiments:
Test in all cases: NCI anticancer screen, dose series, 48 h
SK-MEL-28 melanoma = tested on: SK-MEL-28 melanoma
SK-OV-3 ovarian = tested on: SK-OV-3 ovarian
CAKI-1 renal = tested on: CAKI-1 renal
EKVX NSCLC = tested on: EKVX NSCLC
SW-620 colon = tested on: SW-620 colon
IGROV1 ovarian = tested on: IGROV1 ovarian
UACC-62 melanoma = tested on: UACC-62 melanoma
UACC-257 melanoma = tested on: UACC-257 melanoma
MDA-MB-231 breast = tested on: MDA-MB-231 breast
MDA-N = tested on: MDA-N
OVCAR-8 ovarian = tested on: OVCAR-8 ovarian
KM12 colon = tested on: KM12 colon
SF-295 CNS = tested on: SF-295 CNS
HCT-15 colon = tested on: HCT-15 colon
HL-60(TB) leukemia = tested on: HL-60(TB) leukemia
PC-3 prostate = tested on: PC-3 prostate
TK-10 renal = tested on: TK-10 renal
MOLT-4 leukemia = tested on: MOLT-4 leukemia
NCI-H23 lung = tested on: NCI-H23 lung
SR leukemia = tested on: SR leukemia
M14 melanoma = tested on: M14 melanoma
HT29 colon = tested on: HT29 colon
RXF 393 renal = tested on: RXF 393 renal
CCRF-CEM leukemia = tested on: CCRF-CEM leukemia
SK-MEL-5 melanoma = tested on: SK-MEL-5 melanoma
DU-145 prostate = tested on: DU-145 prostate
MALME-3M melanoma = tested on: MALME-3M melanoma
MCF7 breast = tested on: MCF7 breast
T-47D breast = tested on: T-47D breast
HCC-2998 colon = tested on: HCC-2998 colon
HOP-62 NSCLC = tested on: HOP-62 NSCLC
SF-268 CNS = tested on: SF-268 CNS
SN12C renal = tested on: SN12C renal
COLO 205 colon = tested on: COLO 205 colon
A549 NSCLC = tested on: A549 NSCLC
SNB-75 CNS = tested on: SNB-75 CNS
RPMI-8226 leukemia = tested on: RPMI-8226 leukemia
K-562 leukemia = tested on: K-562 leukemia
786-0 renal = tested on: 786-0 renal
NCI/ADR-RES ovarian = tested on: NCI/ADR-RES ovarian
U251 CNS = tested on: U251 CNS
SNB-19 CNS = tested on: SNB-19 CNS
MDA-MB-435 = tested on: MDA-MB-435
NCI-H226 lung = tested on: NCI-H226 lung
OVCAR-3 ovarian = tested on: OVCAR-3 ovarian
OVCAR-4 ovarian = tested on: OVCAR-4 ovarian
HS 578T breast = tested on: HS 578T breast
SF-539 CNS = tested on: SF-539 CNS
BT-549 breast = tested on: BT-549 breast
ACHN renal = tested on: ACHN renal
NCI-H460 lung = tested on: NCI-H460 lung
LOX IMVI melanoma = tested on: LOX IMVI melanoma
UO-31 renal = tested on: UO-31 renal
A498 renal = tested on: A498 renal
NCI-H522 lung = tested on: NCI-H522 lung
HCT-116 colon = tested on: HCT-116 colon
HOP-92 NSCLC = tested on: HOP-92 NSCLC
OVCAR-5 ovarian = tested on: OVCAR-5 ovarian
SK-MEL-2 melanoma = tested on: SK-MEL-2 melanoma

O=[N+]([O-])c1ccc(/C=N/Nc2nnc3c4ccccc4c4ncccc4c3n2)o1
TGI (SK-MEL-28 melanoma): > 10000 nM
TGI (SK-OV-3 ovarian): > 10000 nM
TGI (CAKI-1 renal): > 10000 nM
TGI (EKVX NSCLC): > 10000 nM
TGI (SW-620 colon): > 10000 nM
TGI (IGROV1 ovarian): > 10000 nM
TGI (UACC-62 melanoma): > 10000 nM
TGI (UACC-257 melanoma): > 10000 nM
TGI (MDA-MB-231 breast): > 10000 nM
TGI (MDA-N): > 10000 nM
TGI (OVCAR-8 ovarian): > 10000 nM
TGI (KM12 colon): > 10000 nM
TGI (SF-295 CNS): > 10000 nM
TGI (HCT-15 colon): > 10000 nM
TGI (HL-60(TB) leukemia): > 10000 nM
TGI (PC-3 prostate): > 10000 nM
TGI (TK-10 renal): > 10000 nM
TGI (MOLT-4 leukemia): > 10000 nM
TGI (NCI-H23 lung): > 10000 nM
TGI (SR leukemia): > 10000 nM
TGI (M14 melanoma): > 10000 nM
TGI (HT29 colon): > 10000 nM
TGI (RXF 393 renal): > 10000 nM
TGI (CCRF-CEM leukemia): > 10000 nM
TGI (SK-MEL-5 melanoma): > 10000 nM
TGI (DU-145 prostate): > 10000 nM
TGI (MALME-3M melanoma): > 10000 nM
TGI (MCF7 breast): > 10000 nM
TGI (T-47D breast): > 10000 nM
TGI (HCC-2998 colon): > 10000 nM
TGI (HOP-62 NSCLC): > 10000 nM
TGI (SF-268 CNS): > 10000 nM
TGI (SN12C renal): > 10000 nM
TGI (COLO 205 colon): > 10000 nM
TGI (A549 NSCLC): > 10000 nM
TGI (SNB-75 CNS): > 10000 nM
TGI (RPMI-8226 leukemia): > 10000 nM
TGI (K-562 leukemia): > 10000 nM
TGI (786-0 renal): > 10000 nM

CC(=O)N1c2ccccc2NC2=C(C(=O)N(Cc3ccccc3)C2(C)C)C1c1ccco1 (stereo not given)
GI50 (SK-MEL-28 melanoma): > 25000 nM
TGI (SK-MEL-28 melanoma): > 25000 nM
GI50 (SK-OV-3 ovarian): 786 nM
TGI (SK-OV-3 ovarian): > 25000 nM
GI50 (CAKI-1 renal): 3410 nM
TGI (CAKI-1 renal): > 25000 nM
GI50 (NCI/ADR-RES ovarian): > 21600 nM
TGI (NCI/ADR-RES ovarian): > 25000 nM
GI50 (EKVX NSCLC): 1730 nM
TGI (EKVX NSCLC): > 25000 nM
GI50 (SW-620 colon): 580 nM
TGI (SW-620 colon): > 25000 nM
GI50 (IGROV1 ovarian): 893 nM
TGI (IGROV1 ovarian): > 25000 nM
GI50 (UACC-62 melanoma): 373 nM
TGI (UACC-62 melanoma): > 25000 nM
GI50 (U251 CNS): 665 nM
TGI (U251 CNS): > 25000 nM
GI50 (UACC-257 melanoma): > 25000 nM
TGI (UACC-257 melanoma): > 25000 nM
GI50 (MDA-MB-231 breast): 364 nM
TGI (MDA-MB-231 breast): > 11300 nM
GI50 (OVCAR-8 ovarian): 1240 nM
TGI (OVCAR-8 ovarian): > 25000 nM
GI50 (SNB-19 CNS): 524 nM
TGI (SNB-19 CNS): > 25000 nM
GI50 (MDA-MB-435): 277 nM
TGI (MDA-MB-435): 859 nM
GI50 (KM12 colon): 579 nM
TGI (KM12 colon): > 16400 nM
GI50 (SF-295 CNS): 766 nM
TGI (SF-295 CNS): > 6830 nM
GI50 (HCT-15 colon): 1200 nM
TGI (HCT-15 colon): > 25000 nM
GI50 (NCI-H226 lung): > 25000 nM
TGI (NCI-H226 lung): > 25000 nM
GI50 (HL-60(TB) leukemia): 103 nM
TGI (HL-60(TB) leukemia): 651 nM
GI50 (OVCAR-3 ovarian): 208 nM
TGI (OVCAR-3 ovarian): 1420 nM
GI50 (OVCAR-4 ovarian): > 6370 nM
TGI (OVCAR-4 ovarian): > 25000 nM
GI50 (HS 578T breast): 976 nM
TGI (HS 578T breast): > 21900 nM
GI50 (PC-3 prostate): 687 nM
TGI (PC-3 prostate): > 25000 nM
GI50 (SF-539 CNS): 395 nM
TGI (SF-539 CNS): 1170 nM
GI50 (TK-10 renal): 6140 nM
TGI (TK-10 renal): > 25000 nM
GI50 (MOLT-4 leukemia): 786 nM
TGI (MOLT-4 leukemia): > 25000 nM
GI50 (BT-549 breast): 8660 nM
TGI (BT-549 breast): > 25000 nM
GI50 (NCI-H23 lung): 494 nM
TGI (NCI-H23 lung): > 25000 nM
GI50 (ACHN renal): 1350 nM
TGI (ACHN renal): > 25000 nM
GI50 (SR leukemia): 463 nM
TGI (SR leukemia): > 25000 nM
GI50 (M14 melanoma): 748 nM
TGI (M14 melanoma): 5310 nM
GI50 (NCI-H460 lung): 145 nM
TGI (NCI-H460 lung): > 21200 nM
GI50 (LOX IMVI melanoma): 1010 nM
TGI (LOX IMVI melanoma): > 25000 nM
GI50 (HT29 colon): 755 nM
TGI (HT29 colon): > 25000 nM
GI50 (RXF 393 renal): 599 nM
TGI (RXF 393 renal): 1870 nM
GI50 (UO-31 renal): 1230 nM
TGI (UO-31 renal): > 25000 nM
GI50 (A498 renal): 727 nM
TGI (A498 renal): > 7060 nM
GI50 (CCRF-CEM leukemia): 258 nM
TGI (CCRF-CEM leukemia): > 25000 nM
GI50 (SK-MEL-5 melanoma): 871 nM
TGI (SK-MEL-5 melanoma): > 25000 nM
GI50 (DU-145 prostate): 115 nM
TGI (DU-145 prostate): > 25000 nM
GI50 (NCI-H522 lung): 871 nM
TGI (NCI-H522 lung): > 25000 nM
GI50 (MALME-3M melanoma): 1200 nM
TGI (MALME-3M melanoma): > 25000 nM
GI50 (MCF7 breast): 368 nM
TGI (MCF7 breast): > 25000 nM
GI50 (T-47D breast): 4880 nM
TGI (T-47D breast): > 25000 nM
GI50 (HCC-2998 colon): 608 nM
TGI (HCC-2998 colon): > 7950 nM
GI50 (HCT-116 colon): 692 nM
TGI (HCT-116 colon): > 25000 nM
GI50 (HOP-62 NSCLC): 1250 nM
TGI (HOP-62 NSCLC): > 25000 nM
GI50 (SF-268 CNS): 1280 nM
TGI (SF-268 CNS): > 25000 nM
GI50 (HOP-92 NSCLC): 1020 nM
TGI (HOP-92 NSCLC): > 25000 nM
GI50 (SN12C renal): 589 nM
TGI (SN12C renal): > 25000 nM
GI50 (COLO 205 colon): 742 nM
TGI (COLO 205 colon): > 25000 nM
GI50 (OVCAR-5 ovarian): 440 nM
TGI (OVCAR-5 ovarian): > 25000 nM
GI50 (A549 NSCLC): 1030 nM
TGI (A549 NSCLC): > 25000 nM
GI50 (SNB-75 CNS): 841 nM
TGI (SNB-75 CNS): > 5780 nM
GI50 (RPMI-8226 leukemia): 758 nM
TGI (RPMI-8226 leukemia): > 25000 nM
GI50 (SK-MEL-2 melanoma): 1030 nM
TGI (SK-MEL-2 melanoma): > 25000 nM
GI50 (K-562 leukemia): 166 nM
TGI (K-562 leukemia): > 25000 nM
GI50 (786-0 renal): 1260 nM
TGI (786-0 renal): > 23100 nM
